Measurements taken from patent publication US9102621B2, “Acyl sulfonamide compounds” (Pfizer Limited, priority 2010, dated 2015).
Counter-ions that a name gives are not always drawn.

Each compound was assayed against T1, Nav1.7 (or SCN9A) channel (Homo sapiens, UniProt Q15858) (assay: Nav1.7 (hSCN9A) channel block, PatchXpress whole-cell electrophysiology). Conditions: PatchXpress platform; HEK cells stably transfected with hSCN9A; estimated IC-50 calculated from single point % inhibition at V1/2; read-out: Nav1.7 EIC50.
T1 construct: expressed in transfected cells
T1 sequence (Q15858 whole entry): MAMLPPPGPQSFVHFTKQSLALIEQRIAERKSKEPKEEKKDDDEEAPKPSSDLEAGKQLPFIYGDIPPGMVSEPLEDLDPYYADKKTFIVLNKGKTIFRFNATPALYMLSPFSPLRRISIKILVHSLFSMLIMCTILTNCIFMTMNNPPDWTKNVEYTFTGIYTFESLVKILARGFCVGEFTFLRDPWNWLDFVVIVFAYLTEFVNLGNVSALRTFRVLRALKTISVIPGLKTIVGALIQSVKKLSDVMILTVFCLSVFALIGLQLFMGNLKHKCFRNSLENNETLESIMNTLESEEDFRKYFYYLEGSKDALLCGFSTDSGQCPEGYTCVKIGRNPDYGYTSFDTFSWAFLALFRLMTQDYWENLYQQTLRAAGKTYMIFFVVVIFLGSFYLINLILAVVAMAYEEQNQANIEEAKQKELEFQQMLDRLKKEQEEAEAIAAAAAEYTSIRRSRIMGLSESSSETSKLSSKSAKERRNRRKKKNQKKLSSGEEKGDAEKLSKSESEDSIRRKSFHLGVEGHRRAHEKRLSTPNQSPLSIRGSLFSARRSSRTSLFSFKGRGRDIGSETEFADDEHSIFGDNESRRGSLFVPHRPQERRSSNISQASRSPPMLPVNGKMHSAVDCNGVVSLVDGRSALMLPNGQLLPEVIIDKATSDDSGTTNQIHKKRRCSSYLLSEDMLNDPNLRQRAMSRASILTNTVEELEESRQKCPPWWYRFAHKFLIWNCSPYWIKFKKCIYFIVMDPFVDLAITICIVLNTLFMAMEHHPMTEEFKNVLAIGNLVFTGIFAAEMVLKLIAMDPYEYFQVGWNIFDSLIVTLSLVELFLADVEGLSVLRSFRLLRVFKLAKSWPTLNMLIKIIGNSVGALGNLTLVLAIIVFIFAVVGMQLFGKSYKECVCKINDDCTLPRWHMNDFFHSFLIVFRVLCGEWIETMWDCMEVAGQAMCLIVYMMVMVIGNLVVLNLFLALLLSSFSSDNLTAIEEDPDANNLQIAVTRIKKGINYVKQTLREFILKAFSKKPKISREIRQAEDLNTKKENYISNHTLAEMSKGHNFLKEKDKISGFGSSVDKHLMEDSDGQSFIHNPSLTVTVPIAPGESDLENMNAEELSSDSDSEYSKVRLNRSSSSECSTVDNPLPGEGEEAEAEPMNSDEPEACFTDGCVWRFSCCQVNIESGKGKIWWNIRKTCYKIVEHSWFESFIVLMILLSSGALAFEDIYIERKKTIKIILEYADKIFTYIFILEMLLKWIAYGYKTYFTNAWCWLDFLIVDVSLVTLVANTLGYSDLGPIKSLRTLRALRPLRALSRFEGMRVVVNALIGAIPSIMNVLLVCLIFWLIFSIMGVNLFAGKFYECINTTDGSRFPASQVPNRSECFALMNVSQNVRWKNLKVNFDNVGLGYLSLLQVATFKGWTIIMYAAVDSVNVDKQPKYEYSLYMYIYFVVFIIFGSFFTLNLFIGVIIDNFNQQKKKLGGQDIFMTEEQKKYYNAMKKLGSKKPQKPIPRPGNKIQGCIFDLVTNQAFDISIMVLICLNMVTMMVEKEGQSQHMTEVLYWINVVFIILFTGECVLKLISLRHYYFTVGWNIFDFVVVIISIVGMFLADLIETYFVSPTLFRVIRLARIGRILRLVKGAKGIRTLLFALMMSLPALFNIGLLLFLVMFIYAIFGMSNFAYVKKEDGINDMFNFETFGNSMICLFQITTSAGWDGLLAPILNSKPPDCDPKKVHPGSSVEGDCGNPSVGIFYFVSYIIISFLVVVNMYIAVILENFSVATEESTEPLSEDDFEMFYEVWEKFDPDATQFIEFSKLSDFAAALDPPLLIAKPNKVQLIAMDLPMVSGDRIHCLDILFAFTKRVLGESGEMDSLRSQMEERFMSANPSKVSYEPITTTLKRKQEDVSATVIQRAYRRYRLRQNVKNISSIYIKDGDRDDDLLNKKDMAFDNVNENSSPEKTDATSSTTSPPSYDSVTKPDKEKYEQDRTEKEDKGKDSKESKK
Type: cell-based
Procedure: The ability of the compounds of formula (I) to block the Nav1.7 (or SCN9A) channel were measured using the assay described below.
Human Embryonic Kidney (HEK) cells were transfected with an hSCN9A construct using lipofectamine reagent (Invitrogen), using standard techniques. Cells stably expressing the hSCN9A constructs were identified by their resistance to G-418 (400 μg/ml). Clones were screened for expression using the whole-cell voltage-clamp technique.
HEK cells stably transfected with hSCN9A were maintained in DMEM medium supplemented with 10% heat-inactivated fetal bovine serum and 400 μg/ml G-418 in an incubator at 37° C. with a humidified atmosphere of 10% CO2. For HTS, cells were harvested from flasks by trypsinization and replated in an appropriate multi-well plate (typically 96 or 384 wells/plate) such that confluence would be achieved within 24 hours of plating. For electrophysiological studies, cells were removed from the culture flask by brief trypsinization and re-plated at low density onto glass cover slips. Cells were typically used for electrophysiological experiments within 24 to 72 hours after plating.
Cover slips containing HEK cells expressing hSCN9A were placed in a bath on the stage of an inverted microscope and perfused (approximately 1 ml/minutes) with extracellular solution of the following composition: 138 mM NaCl, 2 mM CaCl2, 5.4 mM KCl, 1 mM MgCl2, 10 mM glucose, and 10 mM HEPES, pH 7.4, with NaOH. […] The osmolarity of the extracellular and intracellular solutions was 300 mOsm/kg and 295 mOsm/kg, respectively. All recordings were made at room temperature (22-24° C.) using AXOPATCH 200B amplifiers and PCLAMP software (Axon Instruments, Burlingame, Calif.).
hSCN9A currents in HEK cells were measured using the whole-cell configuration of the patch-clamp technique (Hamill et al., 1981). Uncompensated series resistance was typically 2 to 5 mega ohms and >85% series resistance compensation was routinely achieved. As a result, voltage errors were negligible and no correction was applied. Current records were acquired at 20 to 50 KHz and filtered at 5 to 10 KHz.
HEK cells stably transfected with hSCN9A were viewed under Hoffman contrast optics and placed in front of an array of flow pipes emitting either control or compound-containing extracellular solutions. All compounds were dissolved in dimethyl sulfoxide to make 10 mM stock solutions, which were then diluted into extracellular solution to attain the final concentrations desired. […] The voltage-dependence of inactivation was determined by applying a series of depolarizing prepulses (8 sec long in 10 mV increments) from a negative holding potential. The voltage was then immediately stepped to 0 mV to assess the magnitude of the sodium current. Currents elicited at 0 mV were plotted as a function of prepulse potential to allow estimation of the voltage at which 50% of the channels were inactivated (midpoint of inactivation or V1/2). Compounds were tested for their ability to inhibit hSCN9A sodium channels by activating the channel with a 20 msec voltage step to 0 mV following an 8 second conditioning prepulse to the empirically determined V1/2. Compound effect (% inhibition) was determined by difference in current amplitude before and after application of test compounds. […] Inhibition values <20% and >80% were excluded from the calculation.
Electrophysiological assays were conducted with PatchXpress 7000 hardware and associated software (Molecular Devices Corp). All assay buffers and solutions were identical to those used in conventional whole-cell voltage clamp experiments described above. hSCN9A cells were grown as above to 50%-80% confluency and harvested by trypsinization. Trypsinized cells were washed and resuspended in extracellular buffer at a concentration of 1×10^6 cells/ml. The onboard liquid handling facility of the PatchXpress was used for dispensing cells and application of test compounds. […]
With `CS(=O)(=O)NC(=O)c1ccc(COc2cc(C(F)(F)F)c(Cl)cn2)cc1` [Example 62, 4-({[5-Chloro-4-(trifluoromethyl)pyridin-2-yl]oxy}methyl)-N-(methylsulfonyl)benzamide] the IC50 was 3.41 µM.
Compound `CS(=O)(=O)NC(=O)c1ccc(COc2ccc(Cl)cn2)cc1` [Example 63, 4-{[(5-Chloropyridin-2-yl)oxy]methyl}-N-(methylsulfonyl)benzamide] has an IC50 of 6.6 µM.
In the case of `CS(=O)(=O)NC(=O)c1cc(F)c(OCc2ccc(Cl)cn2)cc1F` [Example 64, 4-[(5-Chloropyridin-2-yl)methoxy]-2,5-difluoro-N-(methylsulfonyl)benzamide diethylamine salt], the IC50 is reported as greater than 1 µM.
